Data from PubChem BioAssay AID1963964 (Molecular Pharmacology Branch, DTP, NCI, 2024).

Tested on: 997726-040-R-J2-PDC tumor spheroids, viability
Assay: Anticancer human tumor 997726-040-R-J2-PDC patient-derived squamous cell lung carcinoma cell line growth inhibition [PI3K]
Settings: spheroids with HUVEC and MSC; for viability, T/C: stronger effect = lower value
Outline: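 Stroma-containing spheroids: tumor line, pooled-donor HUVEC, hMSC. Treatments: targeted agents with PI3K inhibitors. Dosing: clinically relevant, half-log spacing, 10 microM ceiling without known Cmax. Read-out: cell viability.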

[1] = curve of first compound, second compound 0.00316 µM
[2] = curve of first compound, second compound 0.01 µM
[3] = curve of first compound, second compound 0.0316 µM
[4] = curve of first compound, second compound 0.1 µM
[5] = curve of first compound, second compound 0.316 µM
[6] = curve of first compound, second compound 1 µM
[7] = second compound 0.00316 µM, first compound 0.0316 µM
[8] = second compound 0.00316 µM, first compound 0.1 µM
[9] = second compound 0.01 µM, first compound 0.0316 µM
[10] = second compound 0.01 µM, first compound 0.1 µM
[11] = second compound 0.0316 µM, first compound 0.0316 µM
[12] = second compound 0.0316 µM, first compound 0.1 µM
[13] = second compound 0.1 µM, first compound 0.0316 µM
[14] = second compound 0.1 µM, first compound 0.1 µM
[15] = second compound 0.316 µM, first compound 0.0316 µM
[16] = second compound 0.316 µM, first compound 0.1 µM
[17] = second compound 1 µM, first compound 0.0316 µM
[18] = second compound 1 µM, first compound 0.1 µM
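Further: spheroids exposed to compounds for seven days before readout.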

In the case of C[C@@H](NC(=O)c1ncnc(N)c1Cl)c1ncc(C(=O)Nc2cc(C(F)(F)F)c(Cl)cn2)s1, the viability, T/C (compound 0.1 µM) is reported as 125% [middle of 4 runs], the viability, T/C (compound 0.316 µM) is reported as 117% [middle of 4 runs] and the viability, T/C (compound 1 µM) is reported as 110% [middle of 4 runs]. The viability, T/C (compound 3.16 µM) was 105% [middle of 4 runs], the viability, T/C (compound 10 µM) was 73.3% [middle of 4 runs] and the IC50 (curve of compound) was greater than 10000 nM.

CC(=O)c1c(C)c2cnc(Nc3ccc(N4CCNCC4)cn3)nc2n(C2CCCC2)c1=O + COc1c(OCCCN2CCOCC2)ccc2c3n(c(=NC(=O)c4cnc(N)nc4)nc12)CCN3 was tested, and the IC50 [1] was greater than 100 nM, the IC50 [2] was 15.6 nM and the IC50 [3] was less than 0.316 nM. The IC50 [4] was less than 0.316 nM, the IC50 [5] was less than 0.316 nM and the IC50 [6] was less than 0.316 nM. It also gave a viability, T/C (second compound 0.00316 µM, first compound 0.000316 µM) of 73%, a viability, T/C (second compound 0.00316 µM, first compound 0.001 µM) of 77.6% and a viability, T/C (second compound 0.00316 µM, first compound 0.00316 µM) of 69.8%. It also gave a viability, T/C (second compound 0.00316 µM, first compound 0.01 µM) of 75%, a viability, T/C [7] of 60.1% and a viability, T/C [8] of 52.4%. For the same compound, the viability, T/C (second compound 0.01 µM, first compound 0.000316 µM) was 62.1%, the viability, T/C (second compound 0.01 µM, first compound 0.001 µM) was 60.9% and the viability, T/C (second compound 0.01 µM, first compound 0.00316 µM) was 53.8%. For the same compound, the viability, T/C (second compound 0.01 µM, first compound 0.01 µM) was 55.8%, the viability, T/C [9] was 44.4% and the viability, T/C [10] was 39.2%. The viability, T/C (second compound 0.0316 µM, first compound 0.000316 µM) was 32.2%, the viability, T/C (second compound 0.0316 µM, first compound 0.001 µM) was 42.1% and the viability, T/C (second compound 0.0316 µM, first compound 0.00316 µM) was 35.3%. The viability, T/C (second compound 0.0316 µM, first compound 0.01 µM) was 34.1%, the viability, T/C [11] was 28.1% and the viability, T/C [12] was 25.7%. It also gave a viability, T/C (second compound 0.1 µM, first compound 0.000316 µM) of 20.6%, a viability, T/C (second compound 0.1 µM, first compound 0.001 µM) of 23.3% and a viability, T/C (second compound 0.1 µM, first compound 0.00316 µM) of 23.9%. The viability, T/C (second compound 0.1 µM, first compound 0.01 µM) was 21%, the viability, T/C [13] was 18.7% and the viability, T/C [14] was 17.1%. For the same compound, the viability, T/C (second compound 0.316 µM, first compound 0.000316 µM) was 5.23%, the viability, T/C (second compound 0.316 µM, first compound 0.001 µM) was 5.65% and the viability, T/C (second compound 0.316 µM, first compound 0.00316 µM) was 6.03%. The viability, T/C (second compound 0.316 µM, first compound 0.01 µM) was 5.28%, the viability, T/C [15] was 5.14% and the viability, T/C [16] was 3.76%. For the same compound, the viability, T/C (second compound 1 µM, first compound 0.000316 µM) was 1.5%, the viability, T/C (second compound 1 µM, first compound 0.001 µM) was 1.26% and the viability, T/C (second compound 1 µM, first compound 0.00316 µM) was 1.01%. It also gave a viability, T/C (second compound 1 µM, first compound 0.01 µM) of 1.2%, a viability, T/C [17] of 1.19% and a viability, T/C [18] of 1.06%.

Work on CC(C)NCC(C(=O)N1CCN(c2ncnc3c2C(C)CC3O)CC1)c1ccc(Cl)cc1 (configuration not stated) + COc1c(OCCCN2CCOCC2)ccc2c3n(c(=NC(=O)c4cnc(N)nc4)nc12)CCN3 yielded an IC50 [1] of 190 nM, an IC50 [2] of 79.8 nM and an IC50 [3] of less than 31.6 nM. For the same compound, the IC50 [4] was less than 31.6 nM, the IC50 [5] was less than 31.6 nM and the IC50 [6] was less than 31.6 nM. It also gave a viability, T/C [7] of 67.1%, a viability, T/C [8] of 55.3% and a viability, T/C (second compound 0.00316 µM, first compound 0.316 µM) of 46%. It also gave a viability, T/C (second compound 0.00316 µM, first compound 1 µM) of 29.1%, a viability, T/C (second compound 0.00316 µM, first compound 3.16 µM) of 15.7% and a viability, T/C (second compound 0.00316 µM, first compound 10 µM) of 9.1%. It also gave a viability, T/C [9] of 51.6%, a viability, T/C [10] of 49.6% and a viability, T/C (second compound 0.01 µM, first compound 0.316 µM) of 42.8%. The viability, T/C (second compound 0.01 µM, first compound 1 µM) was 27%, the viability, T/C (second compound 0.01 µM, first compound 3.16 µM) was 16.8% and the viability, T/C (second compound 0.01 µM, first compound 10 µM) was 9.46%. The viability, T/C [11] was 36.4%, the viability, T/C [12] was 33.1% and the viability, T/C (second compound 0.0316 µM, first compound 0.316 µM) was 27%. The viability, T/C (second compound 0.0316 µM, first compound 1 µM) was 22.3%, the viability, T/C (second compound 0.0316 µM, first compound 3.16 µM) was 13.3% and the viability, T/C (second compound 0.0316 µM, first compound 10 µM) was 7.3%. For the same compound, the viability, T/C [13] was 19.4%, the viability, T/C [14] was 17.6% and the viability, T/C (second compound 0.1 µM, first compound 0.316 µM) was 18.9%. It also gave a viability, T/C (second compound 0.1 µM, first compound 1 µM) of 14.4%, a viability, T/C (second compound 0.1 µM, first compound 3.16 µM) of 8.93% and a viability, T/C (second compound 0.1 µM, first compound 10 µM) of 5.81%. The viability, T/C [15] was 6.3%, the viability, T/C [16] was 5.44% and the viability, T/C (second compound 0.316 µM, first compound 0.316 µM) was 4.27%. For the same compound, the viability, T/C (second compound 0.316 µM, first compound 1 µM) was 3.76%, the viability, T/C (second compound 0.316 µM, first compound 3.16 µM) was 3.51% and the viability, T/C (second compound 0.316 µM, first compound 10 µM) was 2.65%. For the same compound, the viability, T/C [17] was 1.14%, the viability, T/C [18] was 1.32% and the viability, T/C (second compound 1 µM, first compound 0.316 µM) was 1.04%. It also gave a viability, T/C (second compound 1 µM, first compound 1 µM) of 1.33%, a viability, T/C (second compound 1 µM, first compound 3.16 µM) of 2.38% and a viability, T/C (second compound 1 µM, first compound 10 µM) of 1.22%.

For CC(Cn1ccc(-c2ccc(C#N)c(Cl)c2)n1)NC(=O)c1cc(C(C)O)[nH]n1 (configuration not stated), the viability, T/C (compound 0.0316 µM) was 101% [middle of 4 runs], the viability, T/C (compound 0.1 µM) was 103% [middle of 4 runs] and the viability, T/C (compound 0.316 µM) was 105% [middle of 4 runs]. For the same compound, the viability, T/C (compound 1 µM) was 100% [middle of 4 runs], the viability, T/C (compound 3.16 µM) was 107% [middle of 4 runs] and the viability, T/C (compound 10 µM) was 96.3% [middle of 4 runs]. For the same compound, the IC50 (curve of compound) was greater than 10000 nM.
